Marks after values point to notes of the source that are not given here.
Tests used:
Type in all cases: in vivo
[1] = test system: Blumeria graminis f. sp. tritici (also known as Erysiphe graminis f. sp. tritici, the causal agent of wheat powdery mildew); assay: Test D: wheat powdery mildew, preventive spray on wheat seedlings, visual disease rating; details: wheat powdery mildew, preventive spray on wheat seedlings
Outline: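 Preventive test: seedlings sprayed to run-off and inoculated with powdery mildew spores one day later. Suspensions were made in 50/50 acetone/water with 250 ppm Trem 014 surfactant (200 ppm equals 800 g/ha). Visual ratings after 8 days at 20 °C give percent disease control versus controls.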

[2] = test system: Puccinia recondite f. sp. tritici (the causal agent of wheat leaf rust); assay: Test A: wheat leaf rust, preventive spray on wheat seedlings, visual disease rating; details: wheat leaf rust, preventive spray on wheat seedlings
Outline: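 This was a preventive test: Puccinia recondite f. sp. tritici inoculum was applied one day after compound spray to run-off. Test suspensions were made in 50/50 acetone/water with 250 ppm surfactant, at 200 ppm (800 g/ha equivalent) or 40 ppm. Visual ratings of % disease control relative to controls were made after 24 h of saturated humidity and 7 growth-chamber days, all at 20° C.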

[3] = test system: Botrytis cinerea (the causal agent of tomato Botrytis); assay: Test C: tomato Botrytis, preventive spray on tomato seedlings, visual disease rating; details: tomato Botrytis, preventive spray on tomato seedlings
Outline: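 Preventive test: B. cinerea spore inoculation one day after tomato seedlings were sprayed to run-off with compound suspended in 50/50 acetone–water plus 250 ppm surfactant. Plants held 48 h at 20° C in saturated air, then 3 days at 24° C; visual ratings scored 100 (full control) to 0 versus controls; some entries used 40 ppm.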

[4] = test system: Septoria tritici (the causal agent of wheat leaf blotch); assay: Test B: wheat leaf blotch, preventive spray on wheat seedlings, visual disease rating; details: wheat leaf blotch, preventive spray on wheat seedlings
Outline: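 Preventive test: Septoria tritici spores applied one day after run-off spraying of seedlings (200 ppm equals 800 g/ha; some tests 40 ppm). After 48 h at 24 °C saturated atmosphere and 19 days at 20 °C, disease scored visually as % control relative to untreated plants.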

[5] = asterisk: 40 ppm test suspension
[6] = no asterisk (standard test suspension concentration, not 40 ppm)

Compound | Test D rating (100 = 100% disease control, 0 = no disease control relative to the controls) [1, 5] | Test A rating (100 = 100% disease control, 0 = no disease control relative to the controls) [2, 5] | Test C rating (100 = 100% disease control, 0 = no disease control relative to the controls) [3, 5] | Test B rating (100 = 100% disease control, 0 = no disease control relative to the controls) [4, 5] | Test D rating (100 = 100% disease control, 0 = no disease control relative to the controls) [1, 6] [%] | Test A rating (100 = 100% disease control, 0 = no disease control relative to the controls) [2, 6] [%] | Test C rating (100 = 100% disease control, 0 = no disease control relative to the controls) [3, 6] [%] | Test B rating (100 = 100% disease control, 0 = no disease control relative to the controls) [4, 6] [%]
Cc1ncc(C(O)c2ccc(F)cc2Br)n1-c1ccc(F)cc1F (racemic) [compound 301] | 0* % | 97* % | 24* % | 19* % | – | – | – | –
Cc1nc(Cl)n(-c2c(F)cc(F)cc2Br)c1C(O)c1ccc(F)cc1F (single isomer, unassigned) [compound 16] | – | – | – | – | 100 | 100 | 100 | 100
Cc1nc(Cl)n(-c2c(F)cc(F)cc2Br)c1C(O)c1ccc(F)cc1F (single isomer, unassigned) [compound 17] | – | – | – | – | 100 | 100 | 100 | 100
OC(c1ccc(F)cc1F)c1c(Cl)nc(Cl)n1-c1ccc(F)cc1Cl (single isomer, unassigned) [compound 19] | – | – | – | – | 98 | 100 | 100 | 100
OC(c1ccc(F)cc1F)c1c(Cl)nc(Cl)n1-c1ccc(F)cc1Cl (single isomer, unassigned) [compound 20] | – | – | – | – | 100 | 100 | 100 | 100
OC(c1ccc(F)cc1F)c1c(Cl)nc(Cl)n1-c1ccc(Cl)cc1Cl (single isomer, unassigned) [compound 21] | – | – | – | – | 69 | 100 | 100 | 100
OC(c1ccc(F)cc1F)c1c(Cl)nc(Cl)n1-c1ccc(Cl)cc1Cl (single isomer, unassigned) [compound 22] | – | – | – | – | 0 | 100 | 98 | 100
Cc1nc(Cl)n(-c2ccc(F)cc2Cl)c1C(O)c1ccc(F)cc1F (single isomer, unassigned) [compound 27] | – | – | – | – | 99 | 100 | 100 | 100
Cc1nc(Cl)n(-c2ccc(F)cc2Cl)c1C(O)c1ccc(F)cc1F (single isomer, unassigned) [compound 28] | – | – | – | – | 71 | 100 | 100 | 100
OC(c1ccc(Cl)cc1)c1c(Cl)nc(Cl)n1-c1ccc(F)cc1Cl (single isomer, unassigned) [compound 47] | – | – | – | – | 0 | 100 | 99 | 100
OC(c1ccc(Cl)cc1)c1c(Cl)nc(Cl)n1-c1ccc(F)cc1Cl (single isomer, unassigned) [compound 48] | – | – | – | – | 85 | 100 | 100 | 100
Cc1cc(F)ccc1C(O)c1c(Cl)nc(Cl)n1-c1ccc(F)cc1Cl (single isomer, unassigned) [compound 50] | – | – | – | – | 90 | 100 | 100 | 100
Cc1cc(F)ccc1C(O)c1c(Cl)nc(Cl)n1-c1ccc(F)cc1Cl (single isomer, unassigned) [compound 51] | – | – | – | – | 47 | 100 | 99 | 100
OC(c1ccc(F)cc1F)c1c(Cl)nc(Cl)n1-c1ccc(F)cc1F (single isomer, unassigned) [compound 78] | – | – | – | – | 82 | 100 | 99 | 100
OC(c1ccc(F)cc1F)c1c(Cl)nc(Cl)n1-c1ccc(F)cc1F (single isomer, unassigned) [compound 79] | – | – | – | – | 0 | 100 | 98 | 100
Cc1cc(F)ccc1C(O)c1c(Cl)nc(Cl)n1-c1ccc(Cl)cc1Cl (single isomer, unassigned) [compound 84] | – | – | – | – | 0 | 96 | 0 | 100
Cc1cc(F)ccc1C(O)c1c(Cl)nc(Cl)n1-c1ccc(Cl)cc1Cl (single isomer, unassigned) [compound 85] | – | – | – | – | 87 | 99 | 88 | 100
OC(c1ccc(Cl)cc1)c1c(Cl)nc(Cl)n1-c1ccc(Cl)cc1Cl (single isomer, unassigned) [compound 86] | – | – | – | – | 56 | 96 | 73 | 100
OC(c1ccc(Cl)cc1)c1c(Cl)nc(Cl)n1-c1ccc(Cl)cc1Cl (single isomer, unassigned) [compound 87] | – | – | – | – | 48 | 91 | 60 | 100
OC(c1ccc(F)cc1Cl)c1c(Cl)ncn1-c1c(F)cccc1F (stereo not drawn) [Compound 1, 4-chloro-α-(2-chloro-4-fluorophenyl)-1-(2,6-difluorophenyl)-1H-imidazole-5-methanol] | – | – | – | – | 99 | 100 | 99 | 100
OC(c1ccc(F)cc1F)c1c(Cl)ncn1-c1ccc(F)cc1Cl (stereo not drawn) [Compound 2, 4-chloro-1-(2-chloro-4-fluorophenyl)-α-(2,4-difluorophenyl)-1H-imidazole-5-methanol] | – | – | – | – | 81 | 100 | 100 | 100
Cc1ncc(C(O)c2ccc(F)cc2Cl)n1-c1c(F)cc(F)cc1F (stereo not drawn) [Compound 167, α-(2-chloro-4-fluorophenyl)-2-methyl-1-(2,4,6-trifluorophenyl)-1H-imidazole-5-methanol] | – | – | – | – | 0 | 100 | 33 | 100

— patent US20130143929A1, “FUNGICIDAL IMIDAZOLES” (EI DU PONT DE NEMOURS AND COMPANY, priority 2010, published 2013)
